Earlier results on three compounds are cited in patent publication US10987305B2, “Preparation of respirable zafirlukast particles” (Hovione Scientia Limited, priority 2015, dated 2021).

The conditions of data set [1]: as disclosed in US 5,504,216 and related patents.
For data set [2] the following is noted: as disclosed in US 5,504,216 and related patents. This is another data set of the same source.

Structures are written as SMILES.

With `COc1cc(C(=O)NS(=O)(=O)c2ccccc2C)ccc1Cc1cn(C)c2ccc(NC(=O)OC3CCCC3)cc12` [crystalline anhydrous form, zafirlukast], the Bioavailability entry in data set [1] is reported as “relatively poor bioavailability”. Besides, the Physical stability result in data set [2] is “physically stable”.

For the compound `COc1cc(C(=O)NS(=O)(=O)c2ccccc2C)ccc1Cc1cn(C)c2ccc(NC(=O)OC3CCCC3)cc12` [amorphous form, zafirlukast], in data set [1], the Bioavailability entry is listed as “most bioavailable”. The Physical stability result in data set [2] is reported as “less physically stable”.

With `COc1cc(C(=O)NS(=O)(=O)c2ccccc2C)ccc1Cc1cn(C)c2ccc(NC(=O)OC3CCCC3)cc12` [crystalline monohydrate form, zafirlukast], in data set [1], the Bioavailability entry is listed as “relatively poor bioavailability”. In addition, the Physical stability result in data set [2] is on record as “physically stable”.
